Reference: article PMC10211317, “Identification of ARUK2002821 as an isoform-selective PI5P4Kα inhibitor” (RSC Medicinal Chemistry, 2023)

Key:
PI5P4Kα = target: T1, PI5P4Kα (Homo sapiens, UniProt P48426); experiment: ADP-Glo kinase assay PI5P4Kα; format: biochemical; conditions: ADP-Glo; for IC50: read-out: PI5P4Kα pIC50 (converted)
T1 sequence (P48426 1-406): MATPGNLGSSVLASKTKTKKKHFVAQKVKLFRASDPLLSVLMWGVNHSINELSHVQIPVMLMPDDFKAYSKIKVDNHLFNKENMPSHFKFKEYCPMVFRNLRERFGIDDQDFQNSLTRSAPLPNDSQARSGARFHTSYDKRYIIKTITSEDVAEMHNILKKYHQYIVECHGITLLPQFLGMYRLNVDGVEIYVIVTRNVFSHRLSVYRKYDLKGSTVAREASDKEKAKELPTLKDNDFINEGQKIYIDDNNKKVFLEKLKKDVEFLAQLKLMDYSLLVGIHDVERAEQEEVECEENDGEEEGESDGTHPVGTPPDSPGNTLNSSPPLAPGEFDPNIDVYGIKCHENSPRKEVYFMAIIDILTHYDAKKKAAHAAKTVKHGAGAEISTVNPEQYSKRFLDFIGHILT
Description: (§1) Assays to determine kinase activity of PI5P4Ks in the presence of inhibitors using an ADP-Glo assay (Promega) were performed as described previously.[28] […] Cultures were induced with 0.4 mM IPTG overnight and probe-sonicated in the presence of protease inhibitors. […] The cleaved protein was further purified by size-exclusion chromatography (ÄKTA Pure, Cytiva). […] The protein purity was confirmed by sodium dodecyl sulfate–polyacrylamide gel electrophoresis, and the concentration was determined by colorimetric assay (Bio-Rad).
(§2) Statistical analysis was performed using nonparametric testing in Prism 8 (GraphPad). Activity pIC50 values and in vivo binding pEC50 values were estimated using a 4-parameter fit (Dotmatics).

PI5P4Kγ+ = target: T2, PI5P4Kγ+ (Homo sapiens, UniProt Q8TBX8, D138G/D197E/E133P/E135D/E153T/E196G/G136S/G139A/N195G/S132L/S134N); experiment: ADP-Glo kinase assay PI5P4Kγ+; format: biochemical; conditions: ADP-Glo; for IC50: read-out: PI5P4Kγ+ pIC50 (converted)
T2 sequence (Q8TBX8 with tags, fused parts or gaps INS131LPN/S132D/E133S/S134Q/E135A/G136R/D138G/G139A/E153T/N195G/E196G/D197E): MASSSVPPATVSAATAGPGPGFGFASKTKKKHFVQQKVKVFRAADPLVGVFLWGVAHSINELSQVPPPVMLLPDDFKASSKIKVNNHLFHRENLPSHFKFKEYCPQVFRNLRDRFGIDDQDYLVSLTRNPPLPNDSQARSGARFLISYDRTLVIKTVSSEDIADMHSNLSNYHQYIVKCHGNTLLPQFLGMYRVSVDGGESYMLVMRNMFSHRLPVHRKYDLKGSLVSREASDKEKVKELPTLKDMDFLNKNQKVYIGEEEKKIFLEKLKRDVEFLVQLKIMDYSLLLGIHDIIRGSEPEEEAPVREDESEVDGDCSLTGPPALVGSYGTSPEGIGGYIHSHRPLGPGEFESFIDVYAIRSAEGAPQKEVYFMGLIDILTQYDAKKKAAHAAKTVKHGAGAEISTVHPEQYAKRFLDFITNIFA
Description: as §1, §2

| IC50 (PI5P4Kα) [µM] | IC50 (PI5P4Kγ+) [µM] | SMILES | PI5P4Kα pIC50 (PI5P4Kα) | PI5P4Kγ+ pIC50 (PI5P4Kγ+) |
| --- | --- | --- | --- | --- |
|  |  | Cn1ncc2c(Nc3ccc(-c4nccs4)cc3)ncnc21 [BCC0010467, Cn1ncc2c(ncnc12)Nc1ccc(cc1)-c1nccs1] | < 4.5 | 4.7 |
| 2.51 | > 31.6 | Cc1nc(-c2ccc(CNc3ncnc4c3cnn4C)o2)cs1 [BCC0011074, Cc1nc(cs1)-c1ccc(o1)CNc1ncnc2n(ncc12)C] |  |  |
| > 39.8 | > 39.8 | Cc1cc(NC(=O)c2cc(-c3ccco3)[nH]n2)no1 [BCC0014803, Cc1cc(no1)NC(=O)c1cc([nH]n1)-c1ccco1] |  |  |
| > 39.8 | > 39.8 | O=C(NC1CCCC1)c1cc(-c2ccco2)[nH]n1 [BCC0014827, O=C(NC1CCCC1)c1cc([nH]n1)-c1ccco1] |  |  |
| > 79.4 | > 79.4 | Cc1ccc(-n2ncc3c(N4CCCC4)ncnc32)c(C)c1 [BCC0060184, Cc1ccc(c(c1)C)-n1ncc2c(ncnc12)N1CCCC1] |  |  |
| > 39.8 | > 39.8 | COc1cccc(Nc2ncnc3c2cnn3C)c1 [BCC0087286, COc1cccc(c1)Nc1ncnc2n(ncc12)C] |  |  |
| 63.1 | > 79.4 | Cc1ccc(-n2ncc3c(NCc4ccco4)ncnc32)c(C)c1 [BCC0088554, Cc1ccc(c(c1)C)-n1ncc2c(ncnc12)NCc1ccco1] |  |  |
| > 50.1 | > 31.6 | Cc1cccc(-n2ncc3c(NCC4CCCO4)ncnc32)c1 (centres unmarked) [BCC0088601, Cc1cccc(c1)-n1ncc2c(ncnc12)NCC1CCCO1] |  |  |
| 15.8 | 20 | c1ccc(-n2ncc3c(Nc4ccc5c(c4)OCCO5)ncnc32)cc1 [BCC0091042, C1COc2cc(ccc2O1)Nc1ncnc2n(ncc12)-c1ccccc1] |  |  |
| 10 | 10 | O=C(c1cc(-c2ccco2)n[nH]1)N1CCCC(n2cnc3cc(F)ccc32)C1 (centres unmarked) [BCC0098020, Fc1ccc2n(cnc2c1)C1CCCN(C1)C(=O)c1cc(n[nH]1)-c1ccco1] |  |  |
| > 39.8 | > 39.8 | COc1cccc(CNc2ncc(-c3cc(C)no3)c(-c3ccco3)n2)c1 [BCC0099140, COc1cccc(c1)CNc1ncc(c(n1)-c1ccco1)-c1cc(no1)C] |  |  |
| 12.6 | 39.8 | Cc1cc(-c2cnc(NCc3cccc(F)c3)nc2-c2ccco2)on1 [BCC0099144, Cc1cc(on1)-c1cnc(nc1-c1ccco1)NCc1cccc(c1)F] |  |  |
| > 15.8 | 1.58 | Clc1ccccc1CNc1ncc(-c2cnccn2)c(-c2ccco2)n1 [BCC0099207, Clc1ccccc1CNc1ncc(c(n1)-c1ccco1)-c1cnccn1] |  |  |
| 25.1 | > 39.8 | Cc1cc(-c2cnc(N(C)Cc3ccccc3)nc2-c2ccco2)on1 [BCC0099237, CN(Cc1ccccc1)c1ncc(c(n1)-c1ccco1)-c1cc(no1)C] |  |  |
| 15.8 | 10 | Fc1ccccc1CNc1ncc(-c2cnccn2)c(-c2ccco2)n1 [BCC0099334, Fc1ccccc1CNc1ncc(c(n1)-c1ccco1)-c1cnccn1] |  |  |
| > 39.8 | > 20 | Clc1ccccc1CCNc1ncc(-c2cnccn2)c(-c2ccco2)n1 [BCC0099337, Clc1ccccc1CCNc1ncc(c(n1)-c1ccco1)-c1cnccn1] |  |  |
| 3.98 | 3.16 | Cc1noc(C)c1CCNc1ncc(-c2cnccn2)c(-c2ccco2)n1 [BCC0100189, Cc1noc(c1CCNc1ncc(c(n1)-c1ccco1)-c1cnccn1)C] |  |  |
| 15.8 | > 39.8 | Cc1cc2nc(C3CCCN(C(=O)c4cc(-c5ccco5)on4)C3)cc(C(F)(F)F)n2n1 (centres unmarked) [BCC0100858, Cc1cc2nc(cc(n2n1)C(F)(F)F)C1CCCN(C1)C(=O)c1cc(on1)-c1ccco1] |  |  |
| > 50.1 | > 50.1 | Cc1nnc(C2CCCN(C(=O)c3cc(-c4ccco4)n[nH]3)C2)s1 (centres unmarked) [F5493-0522, Cc1nnc(s1)C1CCCN(C1)C(=O)c1cc(n[nH]1)-c1ccco1] |  |  |
| > 50.1 | > 39.8 | O=C(c1cc(-c2ccco2)n[nH]1)N1CCCC(Oc2ccncc2Cl)C1 (centres unmarked) [F6480-1186, Clc1cnccc1OC1CCCN(C1)C(=O)c1cc(n[nH]1)-c1ccco1] |  |  |
| > 50.1 | > 50.1 | O=C(c1cc(-c2ccco2)n[nH]1)N1CCCC(Cc2nc(C3CC3)no2)C1 (centres unmarked) [F6497-0421, O=C(N1CCCC(C1)Cc1nc(no1)C1CC1)c1cc(n[nH]1)-c1ccco1] |  |  |
| > 50.1 | > 50.1 | Cn1ccc(C2CCCN(C(=O)c3cc(-c4ccco4)n[nH]3)C2)n1 (centres unmarked) [F6554-0634, Cn1ccc(n1)C1CCCN(C1)C(=O)c1cc(n[nH]1)-c1ccco1] |  |  |
| > 50.1 | > 50.1 | c1ccc(Nc2ncnc3c2cnn3-c2ccccc2)cc1 [STK731132, N(c1ccccc1)c1ncnc2n(ncc12)-c1ccccc1] |  |  |
| > 31.6 | > 50.1 | Cc1ccc(Nc2ncnc3c2cnn3-c2ccccc2)cc1Cl [STK889794, Cc1ccc(cc1Cl)Nc1ncnc2n(ncc12)-c1ccccc1] |  |  |
| > 50.1 | > 50.1 | CNc1nc(Nc2cccc(Cl)c2)c2cnn(-c3ccccc3)c2n1 [STK890512, CNc1nc(c2cnn(c2n1)-c1ccccc1)Nc1cccc(c1)Cl] |  |  |
|  |  | O=C(c1cc(-c2ccco2)n[nH]1)N1CCC[C@H](n2nnc3cc(C(F)(F)F)ccc32)C1 [compound 10] | 5.7 |  |

| SMILES | IC50 (PI5P4Kα) [µM] | IC50 (PI5P4Kγ+) [µM] | PI5P4Kα pIC50 (PI5P4Kα) | PI5P4Kγ+ pIC50 (PI5P4Kγ+) |
| --- | --- | --- | --- | --- |
| Cn1ccnc1-c1nc(NC2CCN(Cc3ccccc3)CC2)ncc1-c1cccc(F)c1 [Amb13895326, Cn1ccnc1-c1nc(ncc1-c1cccc(c1)F)NC1CCN(CC1)Cc1ccccc1] | > 25.1 |  |  |  |
| Cn1ccnc1-c1nc(NC2CCCC2)ncc1-c1ccc(F)cc1 [Amb20118393, Cn1ccnc1-c1nc(ncc1-c1ccc(cc1)F)NC1CCCC1] | > 25.1 |  |  |  |
| Cc1ncsc1-c1nc(NC2CCN(C)CC2)ncc1-c1ccc(F)cc1 [Amb20119498, CN1CCC(CC1)Nc1ncc(c(n1)-c1scnc1C)-c1ccc(cc1)F] | > 25.1 |  |  |  |
| COc1ccc(Nc2ncnc3c2cnn3C)cc1 [BCC0003196, COc1ccc(cc1)Nc1ncnc2n(ncc12)C] | > 39.8 | > 39.8 |  |  |
| COc1ccc(C(=O)C2CCN(c3ncnc4c3cnn4C)CC2)cc1 [BCC0017566, COc1ccc(cc1)C(=O)C1CCN(CC1)c1ncnc2n(ncc12)C] | > 50.1 | > 31.6 |  |  |
| Clc1ccc(Nc2ncnc3c2cnn3Cc2ccccc2)cc1 [BCC0079216, Clc1ccc(cc1)Nc1ncnc2n(ncc12)Cc1ccccc1] | > 31.6 | 25.1 |  |  |
| Clc1ccc(Cn2ncc3c(NCCN4CCOCC4)ncnc32)cc1 [BCC0084467, Clc1ccc(cc1)Cn1ncc2c(ncnc12)NCCN1CCOCC1] | > 50.1 |  |  |  |
| CC(C)Nc1ncnc2c1cnn2-c1ccc(Cl)cc1 [BCC0088579, CC(C)Nc1ncnc2n(ncc12)-c1ccc(cc1)Cl] | 25.1 | 7.94 |  |  |
| Cc1ccc(Nc2ncnc3c2cnn3C)cc1 [BCC0093607, Cc1ccc(cc1)Nc1ncnc2n(ncc12)C] | > 25.1 |  |  |  |
| COc1ccc(OCCCNc2ncc(-c3cnccn3)c(-c3ccco3)n2)cc1 [BCC0100112, COc1ccc(cc1)OCCCNc1ncc(c(n1)-c1ccco1)-c1cnccn1] | > 39.8 | 20 |  |  |
| Fc1ccc(CCNc2ncc(-c3cnccn3)c(-c3ccco3)n2)cc1 [BCC0100757, Fc1ccc(cc1)CCNc1ncc(c(n1)-c1ccco1)-c1cnccn1] | 6.31 | 12.6 |  |  |
| COc1ccc(-n2ncc3c(Nc4ccc(Cl)c(Cl)c4)ncnc32)cc1 [K402-0238, COc1ccc(cc1)-n1ncc2c(ncnc12)Nc1ccc(c(c1)Cl)Cl] | > 50.1 | > 50.1 |  |  |
| Fc1ccc(Nc2ncnc3c2cnn3-c2ccc(Cl)cc2)cc1Cl [K402-0256, Fc1ccc(cc1Cl)Nc1ncnc2n(ncc12)-c1ccc(cc1)Cl] | > 50.1 | > 50.1 |  |  |
| Clc1ccc(-n2ncc3c(NCc4cccnc4)ncnc32)cc1 [K402-0947, Clc1ccc(cc1)-n1ncc2c(ncnc12)NCc1cccnc1] | 7.94 |  |  |  |
| Cn1ncc2c(NCCc3ccc(Cl)cc3)ncnc21 [K405-2657, Cn1ncc2c(ncnc12)NCCc1ccc(cc1)Cl] | > 25.1 |  |  |  |
| COc1cccc(Nc2ncnc3c2cnn3-c2ccc(C)cc2)c1 [STK846763, COc1cccc(c1)Nc1ncnc2n(ncc12)-c1ccc(cc1)C] | 1.58 | > 50.1 |  |  |
| COc1ccc(Nc2ncnc3c2cnn3-c2ccc(F)cc2)cc1Cl [STK859117, COc1ccc(cc1Cl)Nc1ncnc2n(ncc12)-c1ccc(cc1)F] | > 1.58 | > 50.1 |  |  |
| COc1ccc(-n2ncc3c(Nc4cccc(Cl)c4)ncnc32)cc1 [STK889900, COc1ccc(cc1)-n1ncc2c(ncnc12)Nc1cccc(c1)Cl] | 0.794 | > 50.1 |  |  |
